Like-named read-outs stand apart in the source and are kept apart here.
Key:
[1] = cited from earlier work
[2] = cited from earlier work; for solubility (in words): aqueous; for solubility: 20° C.
[3] = Forced degradation study (formation of valdecoxib); format: physicochemical; details: oxidative, basic, acidic conditions
[4] = biological target: cyclooxygenase 1 (COX-1) (Homo sapiens, UniProt P23219); details: therapeutic plasma concentrations in humans; cited from earlier work
Sequence of cyclooxygenase 1 (COX-1) (P23219 24-599): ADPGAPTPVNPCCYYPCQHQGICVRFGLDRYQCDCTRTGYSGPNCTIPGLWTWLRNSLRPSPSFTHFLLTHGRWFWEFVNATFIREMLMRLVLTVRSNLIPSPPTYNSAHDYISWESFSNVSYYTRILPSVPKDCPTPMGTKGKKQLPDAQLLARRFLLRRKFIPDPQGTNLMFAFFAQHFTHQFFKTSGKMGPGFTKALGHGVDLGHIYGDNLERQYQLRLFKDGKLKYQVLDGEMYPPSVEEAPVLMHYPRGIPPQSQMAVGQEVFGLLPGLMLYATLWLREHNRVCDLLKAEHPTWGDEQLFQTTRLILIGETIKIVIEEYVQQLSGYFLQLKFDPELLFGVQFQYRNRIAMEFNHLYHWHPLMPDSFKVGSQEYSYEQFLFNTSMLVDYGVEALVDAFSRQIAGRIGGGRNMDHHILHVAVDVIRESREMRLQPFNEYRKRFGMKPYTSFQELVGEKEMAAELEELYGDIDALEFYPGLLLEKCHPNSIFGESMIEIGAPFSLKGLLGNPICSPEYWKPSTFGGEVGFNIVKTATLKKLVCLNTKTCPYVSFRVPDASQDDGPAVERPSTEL

## CCC(=O)NS(=O)(=O)c1ccc(-c2c(-c3ccccc3)noc2C)cc1 [Parecoxib, parecoxib]
[1]; 1% in water at 25° C.
  pH of 1% parecoxib in water: about 7.80
[1]
  dissociation constant, pKa: 6.07
[2]; methylene chloride
  solubility in methylene hydrochloride: insoluble
[2]; tetrahydrofuran
  solubility in tetrahydrofuran: slightly soluble
[2]; water
  solubility in water: very soluble

## CCC(=O)NS(=O)(=O)c1ccc(-c2c(-c3ccccc3)noc2C)cc1 [acidic form of parecoxib]
[2]
  solubility (in words): low solubility

## CCC(=O)NS(=O)(=O)c1ccc(-c2c(-c3ccccc3)noc2C)cc1.[Na+] [parecoxib sodium, N-[[4-(5-methyl-3-phenyl-4-isoxazolyl)phenyl]sulfonyl]propanamide sodium salt]
[3]
  sensitivity in forced degradation in relation to the formation of valdecoxib: sensitive to oxidative, basic, and acidic conditions
[2]; pH 7.8
  solubility: 18 mg/mL
[2]; pH 8.3
  solubility: 220 mg/mL
[2]
  solubility (in words): highly soluble

## Cc1onc(-c2ccccc2)c1-c1ccc(S(N)(=O)=O)cc1 [valdecoxib]
[2]
  solubility (in words): low
[4]
  inhibition of cyclooxygenase 1 (COX-1): does not inhibit

From patent US20220142925A1, “NON-STEROIDAL ANTI-INFLAMMATORY LYOPHILIZED PHARMACEUTICAL COMPOSITION” (EUROFARMA LABORATÓRIOS S.A., priority 2019, published 2022)
